According to patent US8557783B2, “Phosphotetrahydropyran compounds for the treatment of wounds and fibrotic disorders” (Pharmaxis Pty Limited, priority 2009, dated 2013):

Key:
[1] = Determination of bioavailability in the rat; format: in vivo; details: oral, rats, gavage 10 mg/kg versus intravenously 1 mg/kg, plasma LC-MS
Description: The phosphotetrahydropyran test compound (Formula 1; n=1 and R=2,4-dimethylphenyl) was administered to rats by gavage at 10 mg/kg or intravenously at 1 mg/kg). Blood samples were taken at 15 and 30 min and at 1, 2, 3, 4, 8, 12 and 24 hours. Plasma samples were prepared by the addition of 50% acetonitrile/water (20 μL). Protein precipitation was carried out by the addition of trichloroacetic acid (20% in water, 40 μL), vortexing (20 s) and after storing at 4° C. for 60 minutes, centrifugation (10,000 rpm) in a microcentrifuge for 5 min. The supernatant was subsequently separated and 25 μL injected directly onto the column for LC-MS analysis.

[2] = system: LPS-induced lung inflammation, C57BI/6 mice; experiment: Acute LPS-induced lung inflammation in the mouse; format: in vivo; details: for total number of inflammatory cells in BAL fluid versus LPS control group: 15 min prior to LPS, 3 hours after LPS
Description: Age-matched germ-free male C57BI/6 mice (25.30±0.39 g; 6-7 week-old) were transiently anaesthetized with a mixture of isoflurane and oxygen. The vehicle-treated group received intravenous injection (iv) of saline 15 min prior to intra-tracheal instillation (i.t.) of lipopolysaccharide (LPS, 3 mg/kg). Another set of animals received i.v. injection of dexamethasone at 1 mg/kg or 2.5 mg/kg 1 hour prior to LPS. The phosphotetrahydropyran test compound was administered to the animals at 5, 15 and 30 mg/kg (iv) 15 min prior to LPS instillation. A separate group of mice was used as sham (saline/PBS) and was treated with i.v. injection of saline and i.t. injection of PBS (phosphate buffered saline).
Three hours after the LPS administration, animals were anaesthetized with urethane (25%, […] body weight). A blood sample was collected by cardiac puncture (≅1 mL) and the animals were sacrificed by cervical dislocation. The trachea was cannulated and the lungs were lavaged with 2 mL of PBS containing EDTA (1 mM). The lavaged fluid was harvested by gentle injections and aspirations four times with 0.5 mL each, and centrifuged. The total cell count was determined on a fresh fluid specimen with Turk solution using a Neubauer chamber. Differential cell counts were determined using Cytospin technique. Aliquots of the bronchoalveolar lavage (BAL) supernatants were stored without further treatment at −80° C.
Slices of each pulmonary lobe were immediately removed from the animal, weighed and either frozen in liquid nitrogen for myeloperoxidase (MPO) assay or placed in the oven for lung oedema evaluation. Determination of MPO activity was used as an index of leukocyte accumulation, where one unit of MPO activity was defined as that degrading 1 μmol hydrogen peroxide/min at 25° C. by the formula MPO (U/g)=Vmax/s×60/0.0113/0.5. Data were presented as MPO activity expressed as U/g wet tissue. To determine pulmonary oedema, the left pulmonary lobes were removed, weighed and dried at 60° C. for 48 h for wet to dry weight ratio measurements.

[3] = target: T1, Cation-Independent Mannose 6-Phosphate Receptor (sCI-MPR) (Bos taurus, UniProt P08169); experiment: Antagonism of mannose 6-phosphate binding to the CI-M6P receptor (SPR, Biacore); design: species or system fetal calf; details: mean; SPR at 25° C., sCI-MPR binding to immobilized human β-glucuronidase
T1 construct: Samples of purified sCI-MPR purified from fetal calf serum; from tissue; host or cells: fetal calf serum
T1 sequence (P08169 45-2313 limits assumed): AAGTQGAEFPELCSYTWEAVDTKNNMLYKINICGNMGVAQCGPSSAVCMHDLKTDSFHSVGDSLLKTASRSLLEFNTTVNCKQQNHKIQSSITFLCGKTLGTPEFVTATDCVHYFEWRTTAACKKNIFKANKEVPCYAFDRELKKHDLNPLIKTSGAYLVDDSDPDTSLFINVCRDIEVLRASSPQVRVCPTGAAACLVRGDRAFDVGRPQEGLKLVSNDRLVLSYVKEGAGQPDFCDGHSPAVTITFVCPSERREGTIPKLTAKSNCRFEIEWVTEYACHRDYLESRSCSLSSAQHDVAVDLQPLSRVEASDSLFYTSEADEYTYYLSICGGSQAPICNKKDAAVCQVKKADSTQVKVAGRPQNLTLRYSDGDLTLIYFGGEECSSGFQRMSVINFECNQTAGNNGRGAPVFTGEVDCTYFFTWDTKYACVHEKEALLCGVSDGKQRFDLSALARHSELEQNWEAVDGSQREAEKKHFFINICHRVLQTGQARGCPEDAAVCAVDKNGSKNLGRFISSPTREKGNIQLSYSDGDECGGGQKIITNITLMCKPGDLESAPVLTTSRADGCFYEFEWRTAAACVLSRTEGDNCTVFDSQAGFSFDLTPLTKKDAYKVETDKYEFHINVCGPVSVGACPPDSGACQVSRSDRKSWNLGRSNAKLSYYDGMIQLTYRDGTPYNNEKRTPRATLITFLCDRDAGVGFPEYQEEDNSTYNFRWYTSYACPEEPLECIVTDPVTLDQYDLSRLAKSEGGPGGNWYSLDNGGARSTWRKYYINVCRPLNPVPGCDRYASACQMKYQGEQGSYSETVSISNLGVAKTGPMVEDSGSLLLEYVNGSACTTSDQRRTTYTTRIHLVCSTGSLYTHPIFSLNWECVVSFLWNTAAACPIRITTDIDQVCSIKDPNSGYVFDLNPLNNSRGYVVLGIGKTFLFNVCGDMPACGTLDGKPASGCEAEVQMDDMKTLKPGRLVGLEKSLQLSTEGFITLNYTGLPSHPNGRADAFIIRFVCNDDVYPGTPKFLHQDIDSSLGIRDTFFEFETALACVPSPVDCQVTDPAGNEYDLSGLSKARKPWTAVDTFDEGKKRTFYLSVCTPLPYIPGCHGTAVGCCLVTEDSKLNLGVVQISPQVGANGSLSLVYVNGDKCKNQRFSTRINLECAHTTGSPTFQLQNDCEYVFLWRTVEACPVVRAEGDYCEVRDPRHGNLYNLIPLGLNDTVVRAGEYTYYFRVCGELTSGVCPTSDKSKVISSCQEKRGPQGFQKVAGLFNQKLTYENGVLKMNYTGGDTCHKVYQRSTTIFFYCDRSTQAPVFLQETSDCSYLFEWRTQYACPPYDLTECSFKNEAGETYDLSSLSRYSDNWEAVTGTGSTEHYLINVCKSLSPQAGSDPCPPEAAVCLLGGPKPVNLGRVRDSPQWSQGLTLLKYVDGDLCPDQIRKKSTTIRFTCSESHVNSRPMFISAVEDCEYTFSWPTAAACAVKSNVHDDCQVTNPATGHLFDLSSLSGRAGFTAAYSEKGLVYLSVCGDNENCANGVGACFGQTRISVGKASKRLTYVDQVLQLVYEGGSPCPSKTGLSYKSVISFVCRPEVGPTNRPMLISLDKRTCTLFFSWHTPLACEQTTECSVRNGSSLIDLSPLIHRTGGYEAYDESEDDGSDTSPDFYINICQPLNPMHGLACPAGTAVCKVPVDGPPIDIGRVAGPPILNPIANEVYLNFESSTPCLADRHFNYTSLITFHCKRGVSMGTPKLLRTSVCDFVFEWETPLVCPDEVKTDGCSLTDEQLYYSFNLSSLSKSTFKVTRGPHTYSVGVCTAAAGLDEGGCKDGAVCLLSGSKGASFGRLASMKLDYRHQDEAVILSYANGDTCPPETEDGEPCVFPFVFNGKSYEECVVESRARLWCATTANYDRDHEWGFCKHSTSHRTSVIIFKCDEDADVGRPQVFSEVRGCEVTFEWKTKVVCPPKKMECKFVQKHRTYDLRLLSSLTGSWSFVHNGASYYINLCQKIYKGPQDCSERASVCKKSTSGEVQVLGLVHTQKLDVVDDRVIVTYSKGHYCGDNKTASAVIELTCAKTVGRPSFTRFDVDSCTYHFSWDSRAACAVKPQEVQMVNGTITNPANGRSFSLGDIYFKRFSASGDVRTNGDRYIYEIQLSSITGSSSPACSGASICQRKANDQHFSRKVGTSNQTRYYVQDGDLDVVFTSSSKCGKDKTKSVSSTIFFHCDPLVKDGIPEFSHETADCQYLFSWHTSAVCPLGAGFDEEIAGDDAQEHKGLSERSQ
Description: All surface plasmon resonance (SPR) measurements were performed at 25° C. using a Biacore 3000 instrument (BIAcore, Piscataway, N.J.). CM5 research grade sensor chips, surfactant P20 and amine coupling kits were also obtained from BIAcore. Purified human β-glucuronidase was immobilized on CM5 sensor chips following activation of the surface using 1-ethyl-3-(3-dimethylaminopropyl)carbodiimide and N-hydroxysuccinimide as recommended by the manufacturer. Briefly, the proteins were injected onto the activated dextran surface at a concentration of 10-20 μg/mL in 10 mM sodium acetate buffer, pH 4.5 using 10 mM HEPES pH 7.5, 150 mM NaCl and 0.005% (v/v) P20 as the running buffer. After coupling, unreacted N-hydroxysuccinimide ester groups were blocked with ethanolamine. The reference surface was treated in the same way except that protein was omitted. […] The response at equilibrium for each concentration of protein was determined by averaging the response over a 10 sec period within the steady state region of the sensorgram using the BIAevaluation software package (version 4.0.1). […]

[4] = system: thioglycolate-induced leukocyte migration in the peritoneal cavity, C57BI/6 mice; experiment: Thioglycolate-induced peritonitis in the mouse; format: in vivo; details: for peritoneal total cell number in untreated mice compared with treated mice: −15 min, 3 h
Description: Germ-free male C57BI/6 mice, weighing in the target range of 21.30±0.39 g (6-7 week-old) were anaesthetised with halothane and then received by intravenous route (iv) increasing doses of the phosphotetrahydropyran test compound (5 or 15 mg/kg, −15 min), dexamethasone (1 mg/kg, −60 min) or the respective vehicle (saline 0.9%, pH 7.4). Peritoneal inflammation was induced by i.p. injection of Brewer's thioglycolate. Thioglycolate was prepared freshly (3%, w/v) in sterile saline, and 1.5 mL was injected into the intraperitoneum cavity (ip). Following 3 h treatment, animals were killed (under anesthesia) by cervical dislocation, and cells were recovered by peritoneal lavage using 5 mL of ice-cold PBS. The lavage contents were immediately stored on ice. Peritoneal exudate cells (PEC) were further diluted in 5 mL of ice-cold PBS. The total cell count was determined on a Neubauer chamber with Turk solution, whereas the differential cell counts were conducted on cytospin preparations. Peritoneal lavage was carefully confirmed to be negative for erythrocytes by microscopy to exclude the possibility that leukocyte accumulation in the peritoneal cavity was due to microbleeding, which may occur during animal preparation.
Data are expressed as Mean (±SEM) from n individual animals. Statistical analysis of data was carried out using Software Graphpad prism v4. Comparative data were analysed using ANOVA followed by Dunnett's post test and ANOVA (unpaired Student's T tests). Statistical P values less than 0.05 were taken as significant.
The results of polymorphonuclear (PMN) (A), mononuclear (MN) recruitment (B) and total cells (C) are shown as number of cells per cavity. The results are from a representative experiment with 11 mice. Significant p values for each time point are shown (Dunnett's post test and unpaired T-test).

[5] = system: New Zealand White rabbits, filtering bleb; experiment: Rabbit model of experimental glaucoma filtering surgery; format: in vivo; details: intraoperative sponge 3 minutes; PXS-25 40 mg/mL, MMC 0.4 mg/mL
Description: New Zealand White rabbits (18) were subjected to a modified glaucoma filtering surgery in the left eye. The animals received either intraoperative PXS-25 at a concentration of 40 mg/mL (Group 1), intraoperative Mitomycin C (MMC) at a concentration of 0.4 mg/mL (Group 2), or intraoperative test compound and Mitomycin C (MMC) (Group 3).
Filtration surgery was performed on the left eye only. MMC, test compound (Formula 1) or the combination were delivered with a large sponge measuring 8×10 mm (dry size) cut from a Weck-Cel prior to cutting the flap and sclerostomy. The sponge pieces were placed between the conjunctiva and sclera over the determined filtration site for 3 minutes. The area was then thoroughly irrigated with 30 mL of physiologic saline. The animals were reviewed on the first day after surgery, and then weekly until bleb failure. The study was terminated after the 8 week. Fluorescein tracer studies was performed as follows. Sodium fluorescein was injected into the anterior chamber and the drainage pathway using a slit lamp based digital video camera system was recorded. The animals were sacrificed and tissue sections were prepared for immunohistochemically staining for signs of scarring and inflammation.

Compound | bioavailability [1] | total number of inflammatory cells in BAL fluid versus LPS control group ([2]; 5 mg/kg iv) | total number of inflammatory cells in BAL fluid versus LPS control group ([2]; 15 mg/kg iv) | total number of inflammatory cells in BAL fluid versus LPS control group ([2]; 30 mg/kg iv) | decrease of neutrophils number in BAL fluid compared to vehicle (saline)-control group ([2]; iv pre-treatment 15 min prior to LPS, P<0.05) | Ki [3] | peritoneal total cell number in untreated mice compared with treated mice ([4]; 5 mg/kg iv) | peritoneal total cell number in untreated mice compared with treated mice ([4]; 15 mg/kg iv) | anti-inflammatory actions (leukocyte migration into the peritoneal cavity) ([4]; iv pre-treatment, 3 h after thioglycolate) | tissue surrounding the site of surgical intervention / bleb [5]
Cc1ccc(COC2O[C@H](CCP(=O)(O)O)[C@@H](O)[C@H](O)[C@@H]2O)c(C)c1 (some centres unmarked) [Formula 1; n=1 and R=2,4-dimethylphenyl] | 7.7% | not significantly different | significant inhibition | not significantly different | 86.7% | 7.9 µM | markedly higher | markedly higher | Dose-dependent anti-inflammatory actions | –
CO[C@@]12[C@H](COC(N)=O)C3=C(C(=O)C(C)=C(N)C3=O)N1C[C@@H]1N[C@@H]12 [Mitomycin C] | – | – | – | – | – | – | – | – | – | very visible dead tissue surrounding the bleb
O=C[C@@H](O)[C@@H](O)[C@H](O)[C@H](O)COP(=O)(O)O [mannose-6-phosphate, reference compound] | – | – | – | – | – | 19 µM | – | – | – | –
